Measurements taken from patent US10870647B2, “Imidazopyridine derivative, method for preparing same, and pharmaceutical composition containing same as active ingredient for preventing or treating cancer” (DAEGU-GYEONGBUK MEDICAL INNOVATION FOUNDATION, priority 2016, dated 2020).

Assays:
Test in all cases: Kinase selectivity, scanMAX Kinase assay panel (DiscoverX), % control at 1 uM
Type in all cases: binding
[1] = molecular target: T1, scanMAX Kinase assay panel (Homo sapiens, UniProt Q96D53); conditions: ADCK4; 1 uM; read-out: Percent Control (%)
T1 construct: purchased DiscoverX
T1 sequence (Q96D53 1-544): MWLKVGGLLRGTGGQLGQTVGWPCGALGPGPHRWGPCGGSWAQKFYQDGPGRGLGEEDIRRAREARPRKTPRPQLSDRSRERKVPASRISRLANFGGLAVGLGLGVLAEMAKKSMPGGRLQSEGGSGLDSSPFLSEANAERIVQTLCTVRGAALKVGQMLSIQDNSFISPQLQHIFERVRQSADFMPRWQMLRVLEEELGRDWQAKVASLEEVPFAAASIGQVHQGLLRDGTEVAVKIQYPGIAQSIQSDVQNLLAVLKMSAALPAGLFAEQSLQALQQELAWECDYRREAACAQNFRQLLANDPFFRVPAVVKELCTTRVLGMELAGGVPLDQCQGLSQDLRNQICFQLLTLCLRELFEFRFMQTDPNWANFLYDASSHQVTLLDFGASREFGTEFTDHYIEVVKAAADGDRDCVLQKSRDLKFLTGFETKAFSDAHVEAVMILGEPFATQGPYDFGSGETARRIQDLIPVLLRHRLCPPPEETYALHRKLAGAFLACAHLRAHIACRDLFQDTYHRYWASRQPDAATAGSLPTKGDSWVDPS
In short: (§1)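 1 uM cpd (DMSO) per kinase; % ctrl = [cpd − pos ctrl]/[neg ctrl − pos ctrl] × 100; hit if <35.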

[2] = molecular target: T2, scanMAX Kinase assay panel (Homo sapiens, UniProt Q8IY84); conditions: NIM1; 1 uM; read-out: Percent Control (%)
T2 construct: purchased DiscoverX
T2 sequence (Q8IY84 whole entry): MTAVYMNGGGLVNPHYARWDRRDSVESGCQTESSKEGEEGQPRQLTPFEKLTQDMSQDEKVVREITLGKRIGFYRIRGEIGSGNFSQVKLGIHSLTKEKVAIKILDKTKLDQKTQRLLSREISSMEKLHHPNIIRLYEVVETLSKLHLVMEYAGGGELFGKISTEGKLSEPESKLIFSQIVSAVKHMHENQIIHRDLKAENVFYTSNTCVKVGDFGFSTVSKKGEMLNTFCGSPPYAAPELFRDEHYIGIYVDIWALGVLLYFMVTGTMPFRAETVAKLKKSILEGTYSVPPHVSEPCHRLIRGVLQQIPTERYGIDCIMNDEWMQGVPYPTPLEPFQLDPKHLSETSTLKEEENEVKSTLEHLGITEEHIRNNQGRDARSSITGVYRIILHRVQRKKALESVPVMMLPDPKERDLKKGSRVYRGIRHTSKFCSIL
In short: as §1

[3] = molecular target: T3, scanMAX Kinase assay panel (Homo sapiens, UniProt Q07002); conditions: PCTK3; 1 uM; read-out: Percent Control (%)
T3 construct: purchased DiscoverX
T3 sequence (Q07002 whole entry): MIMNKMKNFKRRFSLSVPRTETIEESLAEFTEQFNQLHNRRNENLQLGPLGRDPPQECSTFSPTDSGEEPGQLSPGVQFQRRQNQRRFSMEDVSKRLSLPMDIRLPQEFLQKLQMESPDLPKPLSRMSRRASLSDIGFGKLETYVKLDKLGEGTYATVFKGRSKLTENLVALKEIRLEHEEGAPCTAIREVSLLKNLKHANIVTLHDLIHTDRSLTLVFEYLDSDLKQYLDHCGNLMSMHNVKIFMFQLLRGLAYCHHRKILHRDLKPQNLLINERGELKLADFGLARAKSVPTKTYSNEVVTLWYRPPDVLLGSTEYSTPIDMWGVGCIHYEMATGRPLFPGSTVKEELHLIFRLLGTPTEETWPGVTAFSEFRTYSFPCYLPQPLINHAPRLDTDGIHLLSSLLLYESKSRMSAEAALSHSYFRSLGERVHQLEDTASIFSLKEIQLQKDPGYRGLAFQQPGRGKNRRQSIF
In short: as §1

[4] = molecular target: T4, scanMAX Kinase assay panel (Homo sapiens, UniProt Q9UPE1); conditions: SRPK3; 1 uM; read-out: Percent Control (%)
T4 construct: purchased DiscoverX
T4 sequence (Q9UPE1 whole entry): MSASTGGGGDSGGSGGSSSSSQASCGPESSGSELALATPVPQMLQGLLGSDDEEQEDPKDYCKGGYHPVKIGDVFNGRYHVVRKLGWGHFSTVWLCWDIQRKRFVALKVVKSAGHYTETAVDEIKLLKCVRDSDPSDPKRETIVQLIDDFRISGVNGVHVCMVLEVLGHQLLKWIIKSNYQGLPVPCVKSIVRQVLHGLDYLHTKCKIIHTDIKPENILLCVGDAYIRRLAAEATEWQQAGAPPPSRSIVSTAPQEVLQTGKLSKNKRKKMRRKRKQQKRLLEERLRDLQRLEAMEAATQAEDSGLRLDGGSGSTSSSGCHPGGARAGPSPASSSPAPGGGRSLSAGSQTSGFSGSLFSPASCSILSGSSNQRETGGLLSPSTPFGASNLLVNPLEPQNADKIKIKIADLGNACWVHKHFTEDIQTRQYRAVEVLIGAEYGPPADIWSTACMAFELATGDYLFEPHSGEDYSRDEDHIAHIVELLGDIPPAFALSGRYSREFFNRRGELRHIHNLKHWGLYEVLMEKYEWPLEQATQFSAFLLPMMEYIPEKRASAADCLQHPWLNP
In short: as §1

[5] = molecular target: T5, scanMAX Kinase assay panel (Homo sapiens, UniProt P29323); conditions: EPHB2; 1 uM; read-out: Percent Control (%)
T5 construct: purchased DiscoverX
T5 sequence (P29323 19-1055): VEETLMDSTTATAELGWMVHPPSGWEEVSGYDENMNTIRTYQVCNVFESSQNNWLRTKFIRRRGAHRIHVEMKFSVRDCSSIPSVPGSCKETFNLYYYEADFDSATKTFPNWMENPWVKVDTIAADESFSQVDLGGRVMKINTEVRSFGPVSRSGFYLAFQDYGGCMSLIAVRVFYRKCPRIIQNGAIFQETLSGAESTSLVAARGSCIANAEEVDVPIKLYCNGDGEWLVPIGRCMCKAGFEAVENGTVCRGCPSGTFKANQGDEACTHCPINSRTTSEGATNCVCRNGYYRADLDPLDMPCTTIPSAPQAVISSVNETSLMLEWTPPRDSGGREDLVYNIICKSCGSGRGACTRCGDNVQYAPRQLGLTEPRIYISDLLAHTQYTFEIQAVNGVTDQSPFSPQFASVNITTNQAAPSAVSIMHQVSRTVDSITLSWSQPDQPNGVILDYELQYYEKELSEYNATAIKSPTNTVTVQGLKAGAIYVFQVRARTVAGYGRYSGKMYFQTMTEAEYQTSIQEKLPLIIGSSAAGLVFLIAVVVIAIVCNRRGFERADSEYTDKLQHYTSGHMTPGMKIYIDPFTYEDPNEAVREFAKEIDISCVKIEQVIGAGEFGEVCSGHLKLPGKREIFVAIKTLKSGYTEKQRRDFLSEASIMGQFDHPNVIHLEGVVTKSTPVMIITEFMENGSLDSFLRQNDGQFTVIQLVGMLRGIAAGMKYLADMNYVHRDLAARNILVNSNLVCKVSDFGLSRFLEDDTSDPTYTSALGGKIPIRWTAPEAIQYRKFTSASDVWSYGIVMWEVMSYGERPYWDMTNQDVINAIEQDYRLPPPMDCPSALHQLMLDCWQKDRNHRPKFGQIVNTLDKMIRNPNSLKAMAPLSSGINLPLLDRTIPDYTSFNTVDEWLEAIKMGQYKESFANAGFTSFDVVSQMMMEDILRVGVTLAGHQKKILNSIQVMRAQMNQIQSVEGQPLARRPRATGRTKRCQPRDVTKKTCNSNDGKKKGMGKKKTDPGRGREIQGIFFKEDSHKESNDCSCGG
In short: as §1

[6] = molecular target: T6, scanMAX Kinase assay panel (Homo sapiens, UniProt Q9BWU1); conditions: CDK11; 1 uM; read-out: Percent Control (%)
T6 construct: purchased DiscoverX
T6 sequence (Q9BWU1 whole entry): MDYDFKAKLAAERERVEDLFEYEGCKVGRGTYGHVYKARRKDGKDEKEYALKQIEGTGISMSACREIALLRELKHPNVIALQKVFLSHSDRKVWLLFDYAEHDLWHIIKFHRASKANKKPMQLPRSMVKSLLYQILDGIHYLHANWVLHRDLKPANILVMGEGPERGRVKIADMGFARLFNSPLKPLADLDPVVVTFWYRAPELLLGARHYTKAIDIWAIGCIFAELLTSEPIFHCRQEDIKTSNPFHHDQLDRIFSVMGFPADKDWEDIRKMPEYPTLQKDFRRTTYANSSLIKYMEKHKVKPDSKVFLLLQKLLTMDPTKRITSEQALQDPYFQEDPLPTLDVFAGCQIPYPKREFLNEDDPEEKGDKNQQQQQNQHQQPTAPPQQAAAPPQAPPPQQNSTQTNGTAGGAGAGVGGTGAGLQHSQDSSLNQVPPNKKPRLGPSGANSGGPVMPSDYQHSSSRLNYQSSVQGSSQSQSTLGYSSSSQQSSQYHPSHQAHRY
In short: as §1

[7] = molecular target: T7, scanMAX Kinase assay panel (Homo sapiens, UniProt P51451); conditions: BLK; 1 uM; read-out: Percent Control (%)
T7 construct: purchased DiscoverX
T7 sequence (P51451 whole entry): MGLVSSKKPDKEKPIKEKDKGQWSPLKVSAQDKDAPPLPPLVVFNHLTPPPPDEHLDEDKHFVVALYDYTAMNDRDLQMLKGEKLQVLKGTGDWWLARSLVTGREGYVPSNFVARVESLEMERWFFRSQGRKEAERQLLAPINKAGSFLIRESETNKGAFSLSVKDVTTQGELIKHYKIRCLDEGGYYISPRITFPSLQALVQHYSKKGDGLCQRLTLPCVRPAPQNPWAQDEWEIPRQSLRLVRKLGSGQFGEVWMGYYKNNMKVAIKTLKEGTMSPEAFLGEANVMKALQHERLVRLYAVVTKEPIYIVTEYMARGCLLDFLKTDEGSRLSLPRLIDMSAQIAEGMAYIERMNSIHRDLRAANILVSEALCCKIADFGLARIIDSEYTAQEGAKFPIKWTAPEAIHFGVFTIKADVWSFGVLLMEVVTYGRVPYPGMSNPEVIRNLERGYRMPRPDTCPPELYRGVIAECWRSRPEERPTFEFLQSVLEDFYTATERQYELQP
In short: as §1

[8] = molecular target: T8, scanMAX Kinase assay panel (Homo sapiens, UniProt Q86Y07); conditions: VRK2; 1 uM; read-out: Percent Control (%)
T8 construct: purchased DiscoverX
T8 sequence (Q86Y07 whole entry): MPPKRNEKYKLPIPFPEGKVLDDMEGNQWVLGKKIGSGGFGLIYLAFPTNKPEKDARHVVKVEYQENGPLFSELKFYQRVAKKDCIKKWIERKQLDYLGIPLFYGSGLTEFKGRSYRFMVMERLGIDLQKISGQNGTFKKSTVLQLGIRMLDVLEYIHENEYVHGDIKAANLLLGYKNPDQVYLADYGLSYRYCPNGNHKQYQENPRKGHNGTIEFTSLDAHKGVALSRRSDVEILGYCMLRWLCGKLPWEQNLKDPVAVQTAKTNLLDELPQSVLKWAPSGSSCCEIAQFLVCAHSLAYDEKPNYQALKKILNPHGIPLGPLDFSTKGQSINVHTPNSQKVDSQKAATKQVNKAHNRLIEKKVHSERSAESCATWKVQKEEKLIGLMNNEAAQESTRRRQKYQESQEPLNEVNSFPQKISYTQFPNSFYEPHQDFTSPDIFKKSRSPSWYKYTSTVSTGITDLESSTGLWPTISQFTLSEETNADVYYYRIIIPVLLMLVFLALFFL
In short: as §1

[9] = molecular target: T9, scanMAX Kinase assay panel (Homo sapiens, UniProt P36896); conditions: ACVR1B; 1 uM; read-out: Percent Control (%)
T9 construct: purchased DiscoverX
T9 sequence (P36896 24-505): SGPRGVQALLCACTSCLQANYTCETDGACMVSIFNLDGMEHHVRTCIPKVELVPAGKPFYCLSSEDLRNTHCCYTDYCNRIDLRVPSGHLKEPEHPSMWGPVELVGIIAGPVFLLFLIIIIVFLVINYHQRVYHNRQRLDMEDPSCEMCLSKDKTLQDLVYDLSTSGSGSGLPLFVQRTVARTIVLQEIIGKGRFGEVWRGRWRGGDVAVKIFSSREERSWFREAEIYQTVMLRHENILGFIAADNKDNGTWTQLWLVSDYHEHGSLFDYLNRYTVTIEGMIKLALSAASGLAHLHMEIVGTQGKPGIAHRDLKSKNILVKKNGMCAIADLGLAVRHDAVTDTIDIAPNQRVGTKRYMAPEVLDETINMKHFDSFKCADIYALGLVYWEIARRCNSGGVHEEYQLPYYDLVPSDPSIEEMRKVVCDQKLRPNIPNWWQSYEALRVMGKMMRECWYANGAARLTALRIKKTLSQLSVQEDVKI
In short: as §1

Work on `Cc1ccc(C(=O)Nc2ccc(CN3CCN(C)CC3)c(C(F)(F)F)c2)cc1C#Cc1cnc2c(Nc3cnn(C)c3)cccn12` [Example 1, 4-methyl-3-((8-((1-methyl-1H-pyrazol-4-yl)amino)imidazo[1,2-a]pyridin-3-yl)ethynyl)-N-(4-((4-methylpiperazin-1-yl)methyl)-3-(trifluoromethyl)phenyl)benzamide] yielded a remaining binding at 1 µM [1] of 88%, a remaining binding at 1 µM [2] of 92% and a remaining binding at 1 µM [3] of 60%. It also gave a remaining binding at 1 µM [4] of 82%, a remaining binding at 1 µM [5] of 0% and a remaining binding at 1 µM [6] of 0%. It also gave a remaining binding at 1 µM [7] of 0%, a remaining binding at 1 µM [8] of 86% and a remaining binding at 1 µM [9] of 89%.
Compound `Cc1cn(-c2cc(NC(=O)c3ccc(C)c(C#Cc4cnc5c(Nc6cnn(C)c6)cccn45)c3)cc(C(F)(F)F)c2)cn1` [Example 12, 4-methyl-N-(3-(4-methyl-1H-imidazol-1-yl)-5-(trifluoromethyl)phenyl)-3-((8-((1-methyl-1H-pyrazol-4-yl)amino)imidazo[1,2-a]pyridin-3-yl)ethynyl)benzamide] has a remaining binding at 1 µM [1] of 95%, a remaining binding at 1 µM [2] of 100% and a remaining binding at 1 µM [3] of 84%. For the same compound, the remaining binding at 1 µM [4] was 100%, the remaining binding at 1 µM [5] was 27% and the remaining binding at 1 µM [6] was 19%. It also gave a remaining binding at 1 µM [7] of 1%, a remaining binding at 1 µM [8] of 100% and a remaining binding at 1 µM [9] of 94%.
`Cc1ccc(NC(=O)C2(C(=O)Nc3ccc(F)cc3)CC2)cc1C#Cc1cnc2c(Nc3cnn(C(C)C)c3)cccn12` [Example 78] gave a remaining binding at 1 µM [1] of 100%, a remaining binding at 1 µM [2] of 100% and a remaining binding at 1 µM [3] of 100%. It also gave a remaining binding at 1 µM [4] of 100%, a remaining binding at 1 µM [5] of 98% and a remaining binding at 1 µM [6] of 100%. The remaining binding at 1 µM [7] was 35%, the remaining binding at 1 µM [8] was 100% and the remaining binding at 1 µM [9] was 100%.
